In the Biogen ADME set (Fang et al. 2023):
Converted amounts (≈) assume the structure as drawn.

Conditions: for aqueous solubility: pH 6.8

SMILES	MDR1-MDCK efflux ratio	intrinsic clearance, human liver microsomes [mL/min/kg]	intrinsic clearance, rat liver microsomes [mL/min/kg]	aqueous solubility [µg/mL]	fraction unbound, human plasma	fraction unbound, rat plasma
CC(C)Cn1c(=O)[nH]c(=O)c2c1nc1n2CCCCC1	3.54	7.18	28.2	62.7 (≈ 227 µM)		
Cc1cc(F)ccc1-c1nc(CCn2c(C)nc3ccccc32)no1	0.696	398	1800			
N#Cc1ccsc1NC(=O)c1ccccn1				5.91 (≈ 25.8 µM)		
c1ccc2nc(NCCn3ccnc3)cnc2c1	3.5	8.75	441			
COc1ccnc(N2CC(n3nc(C)cc3C)C2)n1	0.655	≤ 4.74	44.2	38 (≈ 146 µM)		
Cc1ccc(Cl)c(OC[C@@]2(O)CN(C3CCCC3)CC[C@@H]2O)c1	1.03	325	2250			
CSc1cnc(N2CCCN(c3ncc(SC)cn3)CC2)nc1	0.648	131	1850			
COc1cccc(/C=C2/N=C(c3ccccc3)NC2=O)c1OC				0.33 (≈ 1.07 µM)		
CC(C)(C)Cc1nnc(-c2cnc3onc(C4CCCC4)c3c2)o1				3.99 (≈ 12.2 µM)		
Cc1ccccc1CS(=O)(=O)c1ncc(Cl)c(C(=O)Nc2sc3c(c2C#N)CCCC3)n1		568	2120			
CCCNC(=O)C1(Cc2ccccn2)CCOCC1	10.9	≤ 4.74	≤ 10.7	85.3 (≈ 325 µM)		
CN1CCN(C2=c3ccccc3=Nc3ccc(Cl)cc3N2)CC1	0.8			58.2 (≈ 178 µM)		
COc1cccc(C)c1C(=O)N[C@H](CO)CCSC	1.7	32.5	741			
CCNC1=N[C@@H]2[C@@H](O)[C@@H](O)[C@H](CO)O[C@@H]2S1		≤ 4.74	≤ 10.7			
Cc1cc(CCCC(=O)NC[C@H]2CC[C@H](c3ccc(C(N)=O)c(C)n3)CC2)ccc1F	33.3	214	808	3.18 (≈ 7.47 µM)		
Nc1ncnc2c1ncn2[C@@H]1O[C@H](CO)[C@@H](O)[C@@H]1O				54.7 (≈ 205 µM)		
O=C(Nc1ccc(Cl)cc1)C(=O)N(C1CCCC1)C1CC1				29.4 (≈ 95.8 µM)		
NCCCC[C@H](N[C@@H](CCc1ccccc1)C(=O)O)C(=O)N1CCC[C@H]1C(=O)O						1
COc1cccc2c1Oc1nc(-c3ccccc3)[nH]c(=S)c1C2				0.35 (≈ 1.09 µM)		

More lines, main results first:

MDR1-MDCK efflux ratio	intrinsic clearance, human liver microsomes [mL/min/kg]	intrinsic clearance, rat liver microsomes [mL/min/kg]	aqueous solubility [µg/mL]	fraction unbound, human plasma	SMILES	fraction unbound, rat plasma
11.4	249	2420	60.5 (≈ 139 µM)		Cc1nc(CC2CCN(S(=O)(=O)c3c(C)noc3C)CC2)cc(NC2CCCC2)n1	
	198	4260			O=C(N[C@H](CO)CC1CCCCC1)c1cccc(-c2cnccn2)c1	
0.714	11	231	39.8 (≈ 163 µM)		N#CCCN(c1ncnc2sccc12)C1CC1	
	≤ 4.74	38.2			COc1cccc(CN2CCc3nc(-c4cnc(C)cn4)nc(O)c3C2)c1	
8.43	69.4	516	67.5 (≈ 146 µM)		CCN(CC)Cc1cccc(/C=C/c2nc3ccc(F)cc3c(=O)n2-c2ccccc2Cl)n1	
0.696	≤ 4.74	30.4	32 (≈ 119 µM)		Cc1ccc(C(=O)Nc2ccccc2C(C)(C)C)cn1	
3.77	77.7	1040	27.1 (≈ 92.5 µM)		CN(C)c1cccc(Cn2ccnc2-c2ccc(O)cc2)c1	
0.092			0.14 (≈ 0.438 µM)		CCc1nnc2c3ccccc3nc(Nc3ccc(OC)cc3)n12	
0.605	119	741	34.7 (≈ 151 µM)		c1ccc(-c2noc(NCC3CCC3)n2)cc1	
			24.2 (≈ 86.9 µM)		Cc1ccc(C)n1-c1ccc(CNS(C)(=O)=O)cc1	
	40.7	266			Cc1noc(CCNc2cccc(F)c2C#N)n1	
1.34	≤ 4.74	54.8	39.6 (≈ 146 µM)		O=C(NCCc1cnn(-c2ccccc2)c1)N1CCC1	
1.27	≤ 4.74	132	32.6 (≈ 157 µM)		CN(CC1(O)CCCC1)c1ncccn1	
0.57	18.9	170			OC1(c2cccnc2F)CCN(Cc2ccc(-c3ccc(F)cc3)o2)CC1	
	≤ 4.74	191			CN1CCCN(C(=O)Nc2cccc(OCC(F)F)n2)CC1	
0.634	≤ 4.74	≤ 10.7	41.9 (≈ 140 µM)		Cc1nc(-c2ccc(Cl)c(Cl)c2)n(CC(C)(C)O)n1	
1.21	≤ 4.74	≤ 10.7			Cc1noc(C)c1CSC(=N)N1CCOCC1	
24.3	≤ 4.74	37.9		0.0709	Cn1cc(Nc2nc(N)nc(-c3cccc(-n4ccc5cc(C6CC6)cc(F)c5c4=O)c3CO)n2)cn1	0.0381
4.68	11.9	206	80.7 (≈ 252 µM)		O=C(C1CCC(O)CC1)N1CCCN(c2ccc(F)cc2)CC1 (stereo not given)	
	210	795			CO[C@H]1[C@H](C2(C)O[C@@H]2CC=C(C)C)[C@]2(CC[C@H]1OC(=O)/C=C/c1ccc(OCCN(C)C)cc1)CO2 (stereo not given in full)	
0.867	≤ 4.74	35.3	43.6 (≈ 149 µM)		Cc1ccccc1CNC(=O)c1ccc(-n2ccnc2)nc1	
			38.4 (≈ 180 µM)		COCC(=O)N1CCN2C(=O)NC[C@H]2C1	
1.15	12.8	256	39.8 (≈ 118 µM)		CO[C@@H](C(=O)Nc1cc2c(C)cc(=O)oc2cc1C)c1ccccc1	
			0.19 (≈ 0.72 µM)		Clc1ccc2oc(/C=C/c3csnn3)nc2c1	
	47.2	1150			Nc1nc(N2CCN(CC3CCCC3)C(=O)C2)cc(-n2cccn2)n1	
0.627	91.2	5070			O=S(=O)(c1cccnc1)N1CCC2(Cc3ccccc3C2)C1	
	≤ 4.74	61.5			Cn1ccnc1C1CCN(C(=O)COCc2nc3cc(F)ccc3[nH]2)CC1	
